Measured values as given in patent US20260363977A1, “COSMETIC COMPOSITION FOR PREVENTING OR AMELIORATING SKIN DISEASES COMPRISING TRIBULUS TERRESTRIS-DERIVED COMPOUND AS ACTIVE INGREDIENT” (DONGGUK UNIVERSITY INDUSTRY-ACADEMIC COOPERATION FOUNDATION, priority 2022, published 2026).

Tests used:
Format in all cases: cell-based
Melanocytes = experiment: MTT cytotoxicity assay in melanocytes; conditions: up to the treatment concentration of 10 μM, 48 hours, FIG. 1
Description: (§1) Melanocytes used were isolated from normal adult skin tissues obtained through repeated cesarean section and circumcision. Dispase 2.4U (#295 825; Roche, Mannheim, Germany) was treated for 1 hour to separate the epidermis, and 0.05% trypsin was treated for 10 minutes to isolate melanocytes. Afterwards, the cells were suspended in Medium 254, and the bovine pituitary extract (BPE), fetal bovine serum (FBS), hydrocortisone, basic fibroblast growth factor (bFGF), bovine transferrin (BT), heparin, and phorbol 12-myristate13-acetate (PMA, Invitrogen) were added and cultured. The cells that had undergone the 3rd~5th passage culture were used in the experiment.
In order to identify cytotoxicity of the 136 candidate materials, MTT assays were performed. Melanocytes were treated with the candidate materials by concentration (10, 50, and 100 μM) for 48 hours, and the cell viability was measured to determine the concentration range at which no cytotoxicity of each candidate material is observed.

tyrosinase [1] = experiment: Western blot of intracellular tyrosinase expression in melanocytes (skin whitening effect); conditions: T13 at 10 μM, 48 hours, compared to control group (CON), repeated 4 times or more, FIG. 2
Description: as §1
In order to identify the skin whitening effect of the 136 candidate materials, Western blot was performed. After treating melanocytes with the candidate material at a concentration at which no cytotoxicity was shown in the melanocytes identified in Example 1-2 for 48 hours, intracellular tyrosinase expression was measured. The experiment was repeated 4 times or more.

tyrosinase [2] = experiment: Western blot of tyrosinase expression in ARG2 overexpressing keratinocyte / normal melanocyte co-culture model (with pCMV control gene model); conditions: 10 μM, 48 hours, compared to control group (CON), P<0.05, FIG. 3
Description: (§2) Keratinocytes used were isolated from normal adult skin tissues obtained through repeated cesarean section and circumcision. The cells were dispensed into EpiLife Medium, and bovine pituitary extract (BPE), bovine insulin (BI), hydrocortisone, human epidermal growth factor (EGF), and bovine transferrin (BT) were added and cultured. The cells that had undergone the 3rd~5th passage culture were used in the experiment. The pituitary extract, bovine insulin, hydrocortisone, human epidermal growth factor, and bovine transferrin were used by purchasing from Invitrogen.
(§3) Melanocytes used were isolated from normal adult skin tissues obtained through repeated cesarean section and circumcision. […]
(§4) In order to identify the skin whitening and anti-aging effects of 16 candidate materials in Example 1-2, for the skin whitening effect, each of the three types of cell models constructed in the Example 2-1 was treated with the 16 candidate materials at concentrations at which no cytotoxicity is shown in the melanocytes identified in Example 1-1 for 48 hours, and then Western blot was performed to measure the expression of tyrosinase. The experiment was repeated 4 times, and P<0.05 was determined to be significant. […] The experiment was repeated 4 times, and P<0.05 was determined to be significant.

tyrosinase [3] = experiment: Western blot of tyrosinase expression in CDH11 overexpressing keratinocyte / melanocyte co-culture model (with pCMV control gene model); conditions: 10 μM, 48 hours, compared to control group (CON), FIG. 3
Description: as §2, §3, §4

tyrosinase [4] = experiment: Western blot of tyrosinase expression in GDA overexpressing keratinocyte / melanocyte co-culture model (with pCMV control gene model); conditions: 10 μM, 48 hours, compared to control group (CON), P<0.05, FIG. 3
Description: as §2, §3, §4

p16 (Ink4a) = experiment: Western blot of p16 (Ink4a) expression in keratinocytes (anti-aging effect); conditions: 10 μM, 48 hours, compared to control group (CON), P<0.05, FIG. 4
Description: as §2
In order to identify the skin whitening and anti-aging effects of 16 candidate materials in Example 1-2, for the skin whitening effect, each of the three types of cell models constructed in the Example 2-1 was treated with the 16 candidate materials at concentrations at which no cytotoxicity is shown in the melanocytes identified in Example 1-1 for 48 hours, and then Western blot was performed to measure the expression of tyrosinase. The experiment was repeated 4 times, and P<0.05 was determined to be significant. In addition, for analysis on the anti-aging effect, the keratinocytes were treated with the above 16 candidate materials for 48 hours each, and then Western blot was performed to measure the expression of p16 (Ink4a). The experiment was repeated 4 times, and P<0.05 was determined to be significant.

tyrosinase; p16 (Ink4a) = experiment: Combined analysis of skin whitening (tyrosinase in three cell models) and anti-aging (p16 in keratinocytes) effects; conditions: 5 of 16 candidate materials; non-cytotoxic concentrations; 48 hours
Description: Keratinocytes were seeded in a culture container at 2×10^5/ml, after 24 hours, pCMV plasmids containing one of three genes [arginase 2 (ARG2, NCBI Gene ID: 384), cadherin 11 (CDH11, NCBI Gene: 1009), and guanine deaminase (GDA, NCBI Gene: 9615)] were transfected into cells using Lipofectamine 2000 to induce overexpression, and after 4 hours of culture with Dulbecco's Modified Essential Medium (DMEM) culture medium without supplements, 0.5×10^5/ml melanocytes were mixed with the keratinocyte culture medium containing supplements and co-cultured in the same culture container. After 24 hours, the keratinocyte culture medium without supplements was replaced, and after 5 hours, the normal melanocytes were treated with the 16 candidate materials for 48 hours. […]
as §4

In the case of `COc1cc([C@@H](O)[C@H](CO)c2ccc(O)c(OC)c2)ccc1O` [T13], the “cytotoxicity in melanocytes (cell viability, MTT)” value (Melanocytes) is reported as “did not show cytotoxicity”, the “intracellular tyrosinase expression in melanocytes” value (tyrosinase [1]) is reported as “significantly reduced” and the “tyrosinase expression, ARG2 overexpressing co-cultured cell model” value (tyrosinase [2]; ARG2 model, more distinct than in pCMV model) is reported as “degree of reduction in tyrosinase expression was more distinct”. The “tyrosinase expression, control gene overexpressing co-cultured cell model (pCMV)” value (“tyrosinase expression … (pCMV)” below) (tyrosinase [2]; pCMV model of the ARG2 experiment) was “significant decrease in tyrosinase expression”, the “tyrosinase expression, CDH11 overexpressing co-cultured cell model” value (tyrosinase [3]; CDH11 model) was “tyrosinase expression was reduced” and the “tyrosinase expression … (pCMV)” value (tyrosinase [3]; pCMV model of the CDH11 experiment) was “did not show a significant difference in expression”. For the same compound, the “tyrosinase expression, GDA overexpressing co-cultured cell model” value (tyrosinase [4]; GDA model, more distinct than in pCMV model) was “degree of reduction in tyrosinase expression was more distinct”, the “tyrosinase expression … (pCMV)” value (tyrosinase [4]; pCMV model of the GDA experiment) was “significant reduction in tyrosinase expression” and the “p16 (Ink4a) expression in keratinocytes” value (p16 (Ink4a)) was “significantly reduced”. The “skin whitening and anti-aging effects shown together” value (tyrosinase; p16 (Ink4a)) was “skin whitening and anti-aging effects were shown together”.
